Results taken from US11953501B2, “Compositions and methods to detect gastrointestinal disease” (The Board of Supervisors of Louisiana State University and …, priority 2016, dated 2024).
Read-outs that look alike come from different tables or passages of the source.

Molecular target: T1, intestinal alkaline phosphatase (iAP) (Homo sapiens, UniProt P09923)
T1 construct: The supernatant contained proteins secreted in the gut lumen, on which our analysis is focused; from tissue; host or cells: stool supernatant (200 mg/mL slurry in water, centrifuged) from human preterm infants
T1 sequence (P09923 20-503 limits assumed): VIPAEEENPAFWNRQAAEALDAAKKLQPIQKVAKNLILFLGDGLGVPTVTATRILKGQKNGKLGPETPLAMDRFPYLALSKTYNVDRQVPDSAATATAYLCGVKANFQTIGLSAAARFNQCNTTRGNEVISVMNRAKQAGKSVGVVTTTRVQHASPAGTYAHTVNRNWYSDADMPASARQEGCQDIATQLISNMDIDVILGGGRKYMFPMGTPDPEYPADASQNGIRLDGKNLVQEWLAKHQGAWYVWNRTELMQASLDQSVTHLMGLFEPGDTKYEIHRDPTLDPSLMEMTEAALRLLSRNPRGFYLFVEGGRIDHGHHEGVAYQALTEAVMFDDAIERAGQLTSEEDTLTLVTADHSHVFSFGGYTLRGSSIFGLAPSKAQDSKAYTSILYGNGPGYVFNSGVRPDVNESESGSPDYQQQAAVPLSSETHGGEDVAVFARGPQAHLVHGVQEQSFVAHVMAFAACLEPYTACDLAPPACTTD
Assay: Fecal iAP catalytic activity, 4-methylumbelliferyl phosphate (MUP) fluorometric assay with and without L-phenylalanine
Format: biochemical
Details: 10 mM L-Phe, spread is SD, read-out: inhibition of AP activity by L-Phe
Protocol: Fecal iAP catalytic activity: Alkaline phosphatase activity was measured with use of 4-methylumbelliferyl phosphate (MUP) as a fluorescent substrate (Abcam, ab83371) in the presence and absence of L-phenylalanine, an inhibitor of iAP. Relative fluorescence units (RFUs) at 360/440 nm were measured using a Spectra Max M2e spectrophotometer (Molecular Devices, Sunnyvale, CA). Ninety-six-well black optical bottom plates were used. Standards and negative controls were prepared for each plate run. Total AP activity was determined as: AP activity (mU/mL)=(B×dilution factor)/(T×V), in which B is nmol of product; V is volume of sample added to the well; T is reaction time; and U is the amount of enzyme causing hydrolysis of 1 μmol of MUP per minute at pH 10.0 and 25° C. […]
Fecal iAP Activity—Alkaline phosphatase activity was ascertained with the use of 4-methylumbelliferyl phosphate as a fluorescent substrate ab83371 (Abeam). […] Relative fluorescence units (RFUs) at 360/440 nm wavelengths were measured using a Spectra Max M2e spectrophotometer (Molecular Devices, Sunnyvale, CA). […] Reaction wells for samples, standards and negative background controls were prepared each time the assay was performed and total alkaline phosphatase activity was determined using: ALP activity (mU/ml)=(B/T)/V x dilution factor […]

Question: `N[C@@H](Cc1ccccc1)C(=O)O` [L-Phe, L-phenylalanine] was tested. Which inhibition at 10000 µM (stool samples from NEC patients) did it give?
Answer: Its inhibition at 10000 µM is 90%.

Question: And the inhibition at 10000 µM (stool samples from control patients)?
Answer: The inhibition at 10000 µM was 91%.
